# Test results reported in patent publication US9023788B2, “Methods compounds and pharmaceutical compositions for treating anxiety and mood disorders” (New York University, priority 2010, dated 2015).
# Entries after “also recorded” stand apart in the source; their conditions may differ.
# Tests used:
# Swiss Webster male mice [1] = experiment: Tail suspension test; type: in vivo, mouse; details: DMI subacute i.p. 10 mg/kg; for immobility, % vehicle control: 6FNE ivt. 3 nmoles; for immobility versus vehicle: acute ivt. 6FNE or DEX
# [2] = test system: Fos expression in LC, PVH, lateral septal nucleus and NAC; experiment: Fos immunohistochemistry in stress- and motivation-related brain regions; type: in vivo, mouse; details: 6FNE 3 nmoles ivt.
# Procedure: At 70 min after drug infusion all animals were deeply anesthetized with a combination of isoflurane and urethane (2.2 g/kg, i.p.) and perfused intracardially with 4% paraformaldehyde for subsequent immunohistochemistry and histological examination of the cannula tip with respect to the 4th ventricle.
# Immunohistochemistry: Methods used for single and double-label Fos and Fos+tyrosine hydroxylase immunohistochemistry have been described in detail elsewhere (Stone, et al., Brain Research (2009) 1291:21-31). In brief, at 70 min after drug infusion deeply anesthetized (isoflurane plus urethane, 2.2 g/kg) mice were perfused intracardially with saline (25 ml) and 4% paraformaldehyde (45 ml), and the sucrose-treated brains were sectioned at 35 p and stained either singly for Fos (PVH, lateral septal nucleus, shell of nucleus accumbens (NAC)) or doubly for Fos and tyrosine hydroxylase (LC). Rabbit anti-fos (Oncogene Science 1:20,000) and chicken anti-tyrosine hydroxylase (Novus Biologicals, 1:5,000) were primary antibodies. Single-label staining involved nickel intensified-diaminobenzidine localization of the secondary biotinylated antibody and avidin-biotin-peroxidase complex. Double-label staining involved the use of Alexa-488 labeled secondary anti-rabbit and Alexa-594 labeled secondary anti-chicken antibodies. […] In all sections, to preclude biasing in the placement of counting frames, large frames comprising the total two dimensional extent of the target structures were counted for every Fos-positive cell by ImageJ. Double-labeled LC cells were defined as those having a fluorescently labeled cytoplasm (TH) and nucleus (Fos) greater than twice background fluorescence.
# Swiss Webster male mice [3] = experiment: LPS model of depression (anhedonia); type: in vivo, mouse
# Procedure: 1LPS model of depression (anhedonia): A modification of the Frenois et al (2007) model of LPS-induced anhedonia in the mouse was used to obtain a non-motoric index of depressed behavior. In this model, trained mice show a marked decrease in preference for a sweet solution 24-48 h after a systemic dose of LPS (830 μg/kg, i.p.), a time when they have recovered from the sickness behavior and anorexia caused by the acute effects of the toxin. For the model, the animals were first implanted with 4th ventricular cannulas as above and, during the recovery period, trained to drink diluted sweetened condensed milk solution (Magnolia 1:3 v:v milk:tap water) by 15 min presentations every other day for 7-10 d. […] Animals given i.p. injections were dosed 14, 12 and 0.5 h prior to the last test.
# [4] = in vivo; cited from earlier work
# Swiss Webster male mice [5] = experiment: Observation for sedation and signs of toxicity; type: in vivo, mouse; details: intracerebral 6FNE or peripheral dp6FNE, range of behavioral tests
# Excerpt: Sedation interferes with behavioral performance and is therefore a detrimental side effect to the treatment of major depressive illness in humans.
# Although dp6FNE was designed to be a temporary treatment, it was of interest to determine how long it would remain effective if given repeatedly.
# brain α-adrenoceptors = details: cited from earlier work
# Swiss Webster male mice [6] = experiment: Open field motor activity after ivt. infusion; type: in vivo, mouse; details: 15 min post infusion; 6FNE 3 nmoles ivt.
# Procedure: Open field motor activity: Implanted mice were placed singly in an open field (46×46×33 cm clear Plexiglas) and permitted to explore freely and habituate for 60 min. The animals were then either left undisturbed in the field or removed and infused with either vehicle or 6FNE (3 nmoles) and replaced in the field for a further 15 min. For comparative purposes a further group of implanted animals, similarly habituated to the field, was given an i.p. injection of d-amphetamine (5 mg/kg) prior to the final 15 min exposure. Movement in the field was videorecorded and was subsequently rated blind for the number of quadrants entered as well as the amount of time spent not touching the walls (“time in the center of the field”).
# Swiss Webster male mice [7] = experiment: Repeated open space forced swim (RFS) test; details: for immobility or distance swum versus vehicle, panel of currently available antidepressants: single acute i.p. dose 15 min prior, FIG. 14
# Swiss Webster male mice [8] = experiment: Acute forced swim test (Porsolt); type: in vivo, mouse; details: for immobility versus vehicle: second swim, 6FNE ivt. peak dose 3 nmoles, DMI subacute i.p. 10 mg/kg
# [9] = test system: Fos expression in LC, PVH, lateral septal nucleus and NAC; details: stimulation or blockade of LC α1-receptors (Stone et al. 2011); cited from earlier work
# LC α1-adrenoceptors [10] = experiment: Novel cage test after LC microinjection; type: in vivo, rat
# LC α1-adrenoceptors [11] = experiment: Home cage test after LC microinjection; type: in vivo, rat
# Procedure: The animal was brought into the laboratory in its home cage and habituated in this cage beneath the video camera for 3 h prior to being injected. […] Food and water remained on the cage during the test. The longer interval (30 min) was used in the home vs. novel cage test because a low baseline activity was desired, and it was necessary to allow time for the disturbance caused by handling the animal to subside. As in the novel cage test, the home cage tests were repeated for a total of 2-3 tests at weekly intervals with different doses of the agonist. All experiments were carried out between 1100 and 1400 h. Following the last behavioral test, the animals were anesthetized with Nembutal and infused bilaterally with 250 nl of 2% methylene blue. Frozen (unfixed) brain sections were stained with cresyl violet for histological localization of cannula placement.
# Videotapes were rated blind for gross movements (GMs), crosses of the cage midline (cage Xs), rearing responses, and time immobile (TI) by a trained observer. […] This included walks to a wall, rears, turns in place, and stretch and attend responses.
# Animals showing significant dye penetration of the 4th ventricle were excluded from the study. Comparisons between two drug conditions in the novel cage experiment were evaluated by Bonferronicorrected dependent t-tests.
# rats = details: cited from earlier work; for antidepressant effect after intracerebral administration: intracerebral infusion/injection
# Swiss Webster male mice [12] = experiment: Open field motor activity and anxiety (i.p. dp6FNE/prazosin); type: in vivo, mouse; details: 1 h; dp6FNE 0.1-3 mg/kg/prazosin; amphetamine 2 mg/kg i.p.
# Procedure: For purposes of comparison, some animals received instead d-amphetamine, 2 mg/kg, i.p. Total quadrants entered and time in the center area of the field as a ratio to the total distance traveled were rated from videorecordings.
# [13] = overall effect across depression tests
# [14] = 5th swim, 6FNE ivt. peak dose, DMI subacute i.p. 10 mg/kg
# [15] = 5th swim, acute ivt. 6FNE or DEX, DMI subacute i.p. 10 mg/kg
# [16] = dpEPI 1 mg/kg i.p. in vehicle with prazosin 0.2 mg/kg + propranolol 0.5 mg/kg, 15 min prior
structure (smiles),measurement,setting,value
"NCC(O)c1cc(O)c(O)cc1F (stereo not drawn) [6FNE, 6-fluoronorepinephrine]","immobility, % vehicle control",Swiss Webster male mice [1],24.7±7.8%
same,immobility versus vehicle,Swiss Webster male mice [1]; 10 mg/kg,equally effective; also recorded: significant overall reduction in immobility
same,Fos expression in LC,[2]; [13],significant overall reduction
same,Fos expression in PVH,[2]; [13],significant overall reduction
same,Fos expression in lateral septal nucleus,[2]; p<0.05,overall increase
same,Fos expression in NAC,[2]; p<0.1,overall increase
same,sucrose preference,Swiss Webster male mice [3]; acute ivt. 6FNE 48 h after LPS 830 μg/kg i.p.,rescued by 6FNE
same,sucrose intake,Swiss Webster male mice [3]; acute ivt. 6FNE in LPS-pretreated animals,inverted-U-shaped increase
same,passage of the blood brain barrier / uptake by the brain,[4],does not pass the blood brain barrier
same,sedation,Swiss Webster male mice [5],no sedative effect
same,agonist efficacy,brain α-adrenoceptors,only known selective full agonist
same,time in the center of the field,Swiss Webster male mice [6],restored this behavior back to the level of the non-handled controls; also recorded: complete rescue
same,total quadrants entered,Swiss Webster male mice [6],no change in activity compared to the non-handled animals; also recorded: completely rescued the activity
same,"distance swum, % vehicle control",Swiss Webster male mice [7]; [14],193.4±22.8%
same,"immobility, % vehicle control",Swiss Webster male mice [7]; [14],36.7±9.2%
same,distance swum versus vehicle,Swiss Webster male mice [7]; [15],borderline increase in distance swum
same,immobility versus vehicle,"Swiss Webster male mice [7]; 5th swim, acute ivt. 6FNE or DEX, DMI subacute i.p. 10 mg/kg, 10 mg/kg",only 6FNE was effective; also recorded: dose-dependently reduced immobility
same,antidepressant response compared with ivt PE,"Swiss Webster male mice [7]; single ivt. infusion 0, 1, 3, 10 nmoles, Example 4, expected",more rapid or greater antidepressant response than PE
same,"climbing duration, overall effect","Swiss Webster male mice [8]; ivt. 6FNE dose-response, one-way ANOVA",failed to show statistical significance
same,immobility versus vehicle,Swiss Webster male mice [8],differed significantly from vehicle
same,neural activity of the LC measured from c-Fos expression,[9],virtually complete cessation of the neural activity
"CNCCCN1c2ccccc2CCc2ccccc21 [DMI, desmethylimipramine]","immobility, % vehicle control",Swiss Webster male mice [1],64.7±20.7%
same,immobility versus vehicle,Swiss Webster male mice [1],significantly reduced immobility
same,anorexia / sucrose intake after subacute antidepressant,Swiss Webster male mice [3]; subacute i.p. DMI,anorexia and markedly reduced sucrose intakes
same,"immobility, % vehicle control",Swiss Webster male mice [7]; [14],94.8±7.1%
same,distance swum versus vehicle,Swiss Webster male mice [7]; [15],failed to affect immobility or distance swum
same,immobility versus vehicle,Swiss Webster male mice [7]; [15],failed to affect immobility or distance swum
same,effect in repeated open-space swim test,"Swiss Webster male mice [7]; acute i.p., dp6FNE 1, 3, 10 mg/kg with prazosin 0.2 mg/kg, DMI 10 mg/kg, FIG. 5",complete lack of effect
same,"immobility or distance swum versus vehicle, panel of currently available antidepressants",Swiss Webster male mice [7],dp6FNE/prazosin (1 mg/kg) was the only agent that either significantly reduced immobility
same,immobility versus vehicle,Swiss Webster male mice [8],significant reduction in immobility
CCN(CCCl)Cc1ccccc1Br [DSP4],effect of pretreatment on behavioral effects of LC terazosin (novel cage) and PE (home cage),LC α1-adrenoceptors [10]; DSP4 10 days before test,markedly attenuated the behavioral effects
same,effect of pretreatment alone on exploratory activity,"LC α1-adrenoceptors [10]; DSP4 10 days before test, novel or home cages",had no effect on exploratory activity
"CNC[C@H](O)c1ccc(O)c(O)c1 [EPI, epinephrine]",agonist efficacy,brain α-adrenoceptors,full agonist
"CNC[C@H](O)c1cccc(O)c1 [PE, phenylephrine]","reversal of terazosin-induced inactivity (GMs, cage Xs, TI)","LC α1-adrenoceptors [10]; PE 10 nmoles/side coinjected with terazosin 3 nmoles/side in LC, 5 rats",completely reverse the terazosin-induced inactivity
same,"GMs and cage Xs, dose-response","LC α1-adrenoceptors [11]; PE 0, 0.03, 0.1, 0.3, 1 nmole/side in LC, 30 min",small dose-dependent increases
same,TI,"LC α1-adrenoceptors [11]; PE 1.0 nmole/side in LC, home cage, 0-15 min",0.98 ± 0.98 min
same,GMS,"LC α1-adrenoceptors [11]; PE 1.0 nmole/side in LC, home cage, 0-15 min, five rats",195.2 ± 25.3
same,% Rears,"LC α1-adrenoceptors [11]; Rears as % of GM, PE 1.0 nmole/side in LC, home cage, 0-15 min",33.5 ± 8.0%
same,% Xs,"LC α1-adrenoceptors [11]; Xs as % of GM, PE 1.0 nmole/side in LC, home cage, 0-15 min",12.3 ± 2.0%
same,anti-immobility effect after systemic administration,"rats; 16 mg/kg, i.p.",only at a near lethal dose
same,antidepressant effect after intracerebral administration,rats,produced antidepressant effects in the forced swim test
"Cc1ccc(N(CC2=NCCN2)c2cccc(O)c2)cc1 [Phentolamine, phentolamine]",passage of the blood brain barrier / uptake by the brain,[4],not taken up by the brain
"C[C@H](N)Cc1ccccc1 [amphetamine, d-amphetamine]",motor activity (quadrants entered),Swiss Webster male mice [12],highly significant increase on locomotion
same,relative time in the center of the field,Swiss Webster male mice [12],significantly tended to reduce it
CC(NC(C)(C)C)C(=O)c1cccc(Cl)c1 (stereo not drawn) [bupropion],"immobility or distance swum versus vehicle, panel of currently available antidepressants",Swiss Webster male mice [7],dp6FNE/prazosin (1 mg/kg) was the only agent that either significantly reduced immobility
Clc1cccc(Cl)c1N=C1NCCN1 [clonidine],"immobility or distance swum versus vehicle, panel of currently available antidepressants",Swiss Webster male mice [7],dp6FNE/prazosin (1 mg/kg) was the only agent that either significantly reduced immobility
same,antidepressant effect after intracerebral administration,rats,rapid antidepressant effects
"CNCC(O)c1ccc(OC(=O)C(C)(C)C)c(OC(=O)C(C)(C)C)c1 (stereo not drawn) [dpEPI, dipivalyl-epinephrine]",distance swum versus vehicle,Swiss Webster male mice [7]; [16],increase in distance swum
same,immobility versus vehicle,Swiss Webster male mice [7]; [16],significant reduction in immobility
CNCCC(Oc1ccc(C(F)(F)F)cc1)c1ccccc1 (stereo not drawn) [fluoxetine],"immobility or distance swum versus vehicle, panel of currently available antidepressants",Swiss Webster male mice [7],dp6FNE/prazosin (1 mg/kg) was the only agent that either significantly reduced immobility
CNC1(c2ccccc2Cl)CCCCC1=O (stereo not drawn) [ketamine],"immobility or distance swum versus vehicle, panel of currently available antidepressants",Swiss Webster male mice [7],dp6FNE/prazosin (1 mg/kg) was the only agent that either significantly reduced immobility
